One experiment addresses T1, p53-Y220C mutant protein (Homo sapiens, UniProt P04637, Y220C).
T1 construct: The recombinant Y220C p53 DBD protein with his-tag
The experiment in a line: In vitro DNA binding activity assay (TR-FRET). The format is biochemical. The note with it: concentration required to increase the binding activity of protein to DNA by 50%. In short, it runs like this: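 His-tagged Y220C p53 DBD was equilibrated with compound 60 min at room temperature, then biotin-DNA, anti-6His-Eu and streptavidin-d2 were added and incubated overnight in the dark. TR-FRET 665/615 nm ratio, background-corrected, was expressed as % activity versus vehicle; SC150 is the concentration raising DNA binding by 50%.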
(In general: Time-resolved FRET reads energy transfer from a long-lived donor to a nearby acceptor.)

For a further experiment, the system named is NUGC-3 cells. Nature of the experiment: NUGC-3 cell proliferation assay (CTG, 7 days). Format: cell-based, human. The note with it: Homo sapiens, NUGC-3, 168 h. The essentials: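 Cells (200/well) in 1640 medium with 10% serum exposed to 10-point, 3-fold DMSO dilutions (duplicates) for 7 days at 37°C. Viability read by CellTiter-Glo luminescence; % inhibition normalized to DMSO and blank, IC50 from variable-slope nonlinear fit.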

Where [1] appears, read: NUGC-3 cell proliferation, 7 days, CTG, read-out: IC50.

Structures are written as SMILES. Read-outs that look alike come from different tables or passages of the source.

Broadly, the IC50 is the concentration at which inhibition is half-maximal. On p53-Y220C mutant protein, `CN1CC[C@@H](Nc2cccc3c(CC(F)(F)F)c(C#CCNC(=O)c4cnn(C(C)(C)C)c4)nn23)[C@@H](F)C1` [Compound 001, 1-tert-butyl-N-[3-(7-{[(3S,4R)-3-fluoro-1-methylpiperidin-4-yl]amino}-3-(2,2,2-trifluoroethyl)pyrazolo[1,5-a]pyridin-2-yl)prop-2-yn-1-yl]-1H-pyrazole-4-carboxamide] had an SC150 of 10 nM. Moreover, the IC50 in the experiment on NUGC-3 cells (setting [1]) is 387 nM.
At p53-Y220C mutant protein, `CN1CC[C@@H](Nc2cccc3c(CC(F)(F)F)c(C#CCNC(=O)c4cnn(C(C)(C)C)c4N)nn23)[C@@H](F)C1` [Compound 047] registered an SC150 of 7 nM. In the experiment with NUGC-3 cells, this molecule returned an IC50 of 129 nM.
Regarding `CNC(=O)c1ccc(NCC#Cc2cc3c(N[C@@H]4CCN(C)C[C@@H]4F)cccc3n2CC(F)(F)F)c(OC)c1` [Control compound, reference compound], the SC150 at p53-Y220C mutant protein is 14 nM. For the same molecule, the IC50 in the experiment with NUGC-3 cells (setting [1]) was 384 nM.
With `CCn1ncc(C(=O)NCC#Cc2nn3c(N[C@@H]4CCN(C)C[C@@H]4F)cccc3c2CC(F)(F)F)c1N` [Compound 261, 5-amino-1-ethyl-N-[3-(7-{[(3S,4R)-3-fluoro-1-methylpiperidin-4-yl]amino}-3-(2,2,2-trifluoroethyl)pyrazolo[1,5-a]pyridin-2-yl)prop-2-yn-1-yl]-1H-pyrazole-4-carboxamide], the SC150 on p53-Y220C mutant protein was found to be 6 nM. The molecule further registered an IC50 with NUGC-3 cells of 172 nM.
